Values quoted from earlier work, collected in patent US9340307B2, “Stable laquinimod preparations” (priority 2007, dated 2016).

Tested on: acute experimental autoimmune encephalomyelitis (aEAE) model
Conditions: U.S. Pat. No. 6,077,851

CCN(C(=O)c1c(O)c2c(Cl)cccc2n(C)c1=O)c1ccccc1 [Laquinimod, N-ethyl-N-phenyl-1,2-dihydro-4-hydroxy-5-chloro-1-methyl-2-oxoquinoline-3-carboxamide]
effectiveness in the aEAE model: effective
